Key:
[1] = test system: endogenous melanophore thrombin receptor; experiment: Pigment aggregation in mock (non-receptor) transfected melanophores; assay type: cell-based, Xenopus laevis; settings: represents activation of endogenous thrombin receptor
Procedure: (§1) For Gi-coupled responses, cell monolayers plated in 96-well microtiter plates were incubated in the presence of 100 μl/well of 70% L-15 media containing 2% fibroblast-conditioned growth medium, 2 mM glutamine, 100 μg/ml streptomycin, 100 units/ml penicillin and 15 mM HEPES, pH 7.3, for 15 minutes in readings at 600 nm were determined, followed by the addition of ligands. After a 1.5 hour incubation in the dark at room temperature final absorbances were determined. Absorbance readings were converted to transmission values to quantitate pigment dispersion using the following formula: 1−Tf/Ti, where Ti=the initial transmission at 600 nm and Tf=the final transmission at 600 nm.
(§2) The Xenopus melanophore system (Daniolos, et al., 1992. Pigment Cell Res. 3, 38–43) is based on the dispersion and aggregation of intracellular pigment granules in response to changes in intracellular second messenger molecules. Agonist activation of a recombinant Gs- or Gq-coupled receptor expressed heterologously in melanophores leads to pigment dispersion. […] Changes in the melanophore pigmentation show a dose-dependent correlation with the level of specific receptor activation, and can be quantified by the change in absorbance at 600 nm between the nonactivated and agonist-activated cells (Daniolos, et al., 1992. Pigment Cell Res. 3, 38–43). […]

[2] = test system: endogenous Xenopus receptor; experiment: Melanophore pigment aggregation control, endogenous melatonin response; assay type: cell-based, Xenopus laevis; settings: stimulating the endogenous Xenopus receptor
Procedure: as §1, §2

Row | Pigment aggregation response in mock (non-receptor) transfected melanophores [1] | Aggregation response (control) [2] | Compound
1 | detected |  | thrombin
2 |  | positive aggregation response | COc1ccc2[nH]cc(CCNC(C)=O)c2c1 [melatonin]

Source: patent US7198910B1, “Nucleic acid encoding melanin-concentrating hormone receptor” (Merck & Co., Inc., priority 1999, dated 2007)
